Experimental data published in patent publication US10111890B2, “9-aminomethyl minocycline compounds and uses thereof” (Paratek Pharmaceuticals, Inc., priority 2016, dated 2018).
Like-named read-outs stand apart in the source and are kept apart here.

How the values were obtained:
[1] = Phase 1 food-effect study: safety and tolerability; type: in vivo, human
Experimental: Safety and tolerability was assessed by: Adverse events (AEs); vital sign measurements at multiple time-points within 24 hours post-dose in each treatment period; and clinical laboratory tests 24 hours post-dose in each treatment period.

[2] = Phase 1 multiple oral dose (300, 450, 600 mg once daily x 5 days) crossover study: plasma pharmacokinetics; conditions: for Day 1 PK Summary, Geom. Mean / Day 1 PK Summary, Mean / Day 5 PK Summary, Geom. Mean / Day 5 PK Summary, Mean: preliminary results; for half-life / Tmax / AUC(0-t) / Cmax: human; for half-life: in vivo; for Tmax / AUC(0-t) / Cmax: plasma; for Cmax: Mean Cmax; for exposure (dose-normalized AUC0-24) as % of that predicted if perfectly dose-proportional: increase in dose from 300 mg to 600 mg
From the text: Thus the study was designed as a Phase 1, randomized, double-blind, 3-period, crossover study in healthy adult subjects. The study consisted of a screening period (Day −21 through Day −2), 3 baseline periods (Day −1 of each period), 3 treatment periods (Day 1 through Day 6 of each period), and a study completion visit (within 6 to 10 days after the last dose of study drug in Period 3). There was a washout of at least 5 days between the last dose in one period and the first dose in the next period. Subjects were confined to the study site from Day −1 of Period 1 until discharge on Day 6 of Period 3, after the 24-hour blood sampling, urine sampling, and safety assessments were completed. Subjects returned to the study center 6 to 10 days after the last dose of study drug in Period 3 for the study completion visit.
All doses of study drug were administered in the morning with no food or drink except for water at least 6 hours prior to dosing. Subjects then had no food or drink except water for at least 2 hours after dosing and no dairy products, antacids, or multivitamins for 4 hours after dosing.
The 24-hour blood sample for Day 1 was collected prior to dosing on Day 2 for each period.
Point estimates and 90% CIs for differences on the log scale were exponentiated to obtain estimates for the ratios of geometric means and respective 90% CIs on the original scale. No adjustment was made for multiplicity.
The estimates of slope b were reported along with the corresponding 2-sided 90% CIs.

[3] = Phase 1 multiple oral dose study: urine pharmacokinetics; type: in vivo, human; conditions: for CL renal: human
Experimental: Urine samples were only collected from a subset of subjects because analysis of urine PK was added by an amendment to the study protocol after the study was already underway. […] Additional parameters […] Ae0-24 were also calculated.

[4] = single 300 mg oral dose, healthy subjects

In the case of CN(C)c1cc(CNCC(C)(C)C)c(O)c2c1C[C@H]1C[C@H]3[C@H](N(C)C)C(O)=C(C(N)=O)C(=O)[C@@]3(O)C(O)=C1C2=O [Omadacycline, 9-[(2,2-dimethyl-propylamino)-methyl]-minocycline], the “serious AE (SAE)” value [1, 4] was “no subject experienced a serious AE”, the “treatment-related adverse events, clinically relevant changes in laboratory values or vital signs” value [1, 4] was “No treatment-related adverse events or clinically relevant changes in laboratory values, or vital signs occurred” and the “median change from baseline in heart rate” value ([1]; single 300 mg oral dose, all other treatment groups, all measured time points) was no more than 3 bpm. For the same compound, the tolerability ([1]; single oral dose (300 mg), healthy subjects) was “well tolerated”, the “Mean AUC0-24” value ([2]; 300 mg oral once daily, Day 5) was 9267.2 ng·h/mL and the “Cmax/Dose, Geometric LS Means” value ([2]; 300 mg, Day 1) was 2.09 ng/mL/mg. The “Cmax/Dose, Geometric LS Means” value ([2]; 300 mg, Day 5) was 2.62 ng/mL/mg, the “Cmax/Dose, Geometric LS Means” value ([2]; 450 mg, Day 1) was 1.81 ng/mL/mg and the “Cmax/Dose, Geometric LS Means” value ([2]; 450 mg, Day 5) was 2.32 ng/mL/mg. For the same compound, the “Cmax/Dose, Geometric LS Means” value ([2]; 600 mg, Day 1) was 1.54 ng/mL/mg, the “Cmax/Dose, Geometric LS Means” value ([2]; 600 mg, Day 5) was 2.11 ng/mL/mg and the “Day 1 PK Summary, Geom. Mean” value ([2]; 300 (dose), Day 1) was 6,293.65. For the same compound, the “Day 1 PK Summary, Mean” value ([2]; 300 (dose), Day 1) was 6,560.73, the “Day 5 PK Summary, Geom. Mean” value ([2]; 300 (dose), Day 5) was 8,990.55 and the “Day 5 PK Summary, Mean” value ([2]; 300 (dose), Day 5) was 9,351.02. The “Day 1 PK Summary, Geom. Mean” value ([2]; 450 (dose), Day 1) was 8,382.03, the “Day 1 PK Summary, Mean” value ([2]; 450 (dose), Day 1) was 8,959.13 and the “Day 5 PK Summary, Geom. Mean” value ([2]; 450 (dose), Day 5) was 12,883.95. The “Day 5 PK Summary, Mean” value ([2]; 450 (dose), Day 5) was 13,363.54, the “Day 1 PK Summary, Geom. Mean” value ([2]; 600 (dose), Day 1) was 9,644.67 and the “Day 1 PK Summary, Mean” value ([2]; 600 (dose), Day 1) was 9,990.20. For the same compound, the “Day 5 PK Summary, Geom. Mean” value ([2]; 600 (dose), Day 5) was 15,431.37, the “Day 5 PK Summary, Mean” value ([2]; 600 (dose), Day 5) was 16,171.61 and the “systemic exposure on Day 5 higher than on Day 1” value ([2]; all tested dose levels) was roughly 50%. The half-life ([2]; mean half-life in plasma (T1/2), across the 3 tested dose levels, Day 1) was roughly 13 h, the half-life ([2]; mean half-life in plasma (T1/2), across the 3 tested dose levels, Day 5) was roughly 16 h and the half-life ([2]; po, 300 mg, Mean T1/2, 300 mg oral once daily, Day 1) was 13.7 h. For the same compound, the half-life ([2]; po, 300 mg, Mean T1/2, 300 mg oral once daily, Day 5) was 15.5 h, the half-life ([2]; po, 450 mg, Mean T1/2, 450 mg oral once daily, Day 1) was 13.4 h and the half-life ([2]; po, 450 mg, Mean T1/2, 450 mg oral once daily, Day 5) was 16.8 h. It also gave a half-life ([2]; po, 600 mg, Mean T1/2, 600 mg oral once daily, Day 1) of 13 h, a half-life ([2]; po, 600 mg, Mean T1/2, 600 mg oral once daily, Day 5) of 16.8 h and a Tmax ([2]; oral, 600 mg, time at which mean plasma concentrations peaked (Tmax), all tested dose levels (300, 450, 600 mg), Day 1 and Day 5) of 2.5 h. For the same compound, the AUC(0-t) ([2]; po, 300 mg, Mean AUC0-24, 300 mg oral once daily, Day 1) was 6640 ng·h/mL, the AUC(0-t) ([2]; po, 300 mg, Mean AUC0-24, 300 mg oral once daily, Day 5) was 9270 ng·h/mL and the Cmax ([2]; po, 300 mg, 300 mg oral once daily, Day 1) was 649 ng/mL. It also gave a Cmax ([2]; po, 300 mg, 300 mg oral once daily, Day 5) of 809 ng/mL, a Tmax ([2]; po, 300 mg, Mean Tmax, 300 mg oral once daily, Day 1) of 2.5 h and a Tmax ([2]; po, 300 mg, Mean Tmax, 300 mg oral once daily, Day 5) of 2.5 h. The AUC(0-t) ([2]; po, 450 mg, Mean AUC0-24, 450 mg oral once daily, Day 1) was 8980 ng·h/mL, the AUC(0-t) ([2]; po, 450 mg, Mean AUC0-24, 450 mg oral once daily, Day 5) was 13400 ng·h/mL and the Cmax ([2]; po, 450 mg, 450 mg oral once daily, Day 1) was 874 ng/mL. It also gave a Cmax ([2]; po, 450 mg, 450 mg oral once daily, Day 5) of 1080 ng/mL, a Tmax ([2]; po, 450 mg, Mean Tmax, 450 mg oral once daily, Day 1) of 2.5 h and a Tmax ([2]; po, 450 mg, Mean Tmax, 450 mg oral once daily, Day 5) of 2.5 h. For the same compound, the AUC(0-t) ([2]; po, 600 mg, Mean AUC0-24, 600 mg oral once daily, Day 1) was 10000 ng·h/mL, the AUC(0-t) ([2]; po, 600 mg, Mean AUC0-24, 600 mg oral once daily, Day 5) was 16400 ng·h/mL and the Cmax ([2]; po, 600 mg, 600 mg oral once daily, Day 1) was 954 ng/mL. For the same compound, the Cmax ([2]; po, 600 mg, 600 mg oral once daily, Day 5) was 1310 ng/mL, the Tmax ([2]; po, 600 mg, Mean Tmax, 600 mg oral once daily, Day 1) was 2.51 h and the Tmax ([2]; po, 600 mg, Mean Tmax, 600 mg oral once daily, Day 5) was 2.5 h. For the same compound, the “exposure (dose-normalized AUC0-24) as % of that predicted if perfectly dose-proportional” value ([2]; Day 1) was 76%, the “exposure (dose-normalized AUC0-24) as % of that predicted if perfectly dose-proportional” value ([2]; Day 5) was 88% and the “Ae0-24, Mean (CV)” value ([3]; 300 mg, Day 1 (n = 2)) was 20.37 (8.3) mg. For the same compound, the “Fe0-24, Mean (CV)” value ([3]; 300 mg, Day 1 (n = 2)) was 6.79 (8.3) %, the “Ae0-24, Mean (CV)” value ([3]; 300 mg, Day 5 (n = 3)) was 26.14 (14.6) mg and the “Fe0-24, Mean (CV)” value ([3]; 300 mg, Day 5 (n = 3)) was 8.71 (14.6) %. For the same compound, the “Ae0-24, Mean (CV)” value ([3]; 450 mg, Day 1 (n = 3)) was 25.06 (16.8) mg, the “Fe0-24, Mean (CV)” value ([3]; 450 mg, Day 1 (n = 3)) was 5.57 (16.8) % and the “Ae0-24, Mean (CV)” value ([3]; 450 mg, Day 5 (n = 5)) was 30.81 (33.0) mg. For the same compound, the “Fe0-24, Mean (CV)” value ([3]; 450 mg, Day 5 (n = 5)) was 6.85 (33.0) %, the “Ae0-24, Mean (CV)” value ([3]; 600 mg, Day 1 (n = 1)) was 31.96 mg and the “Fe0-24, Mean (CV)” value ([3]; 600 mg, Day 1 (n = 1)) was 5.33%. The “Ae0-24, Mean (CV)” value ([3]; 600 mg, Day 5 (n = 4)) was 51.82 (14.8) mg, the “Fe0-24, Mean (CV)” value ([3]; 600 mg, Day 5 (n = 4)) was 8.64 (14.8) % and the CL renal ([3]; in vivo, 300 mg, Day 1 (n = 2), read-out: CLr, Mean (CV) (converted)) was 50.2 mL/min. It also gave a CL renal ([3]; in vivo, 300 mg, Day 5 (n = 3), read-out: CLr, Mean (CV) (converted)) of 54.7 mL/min, a CL renal ([3]; in vivo, 450 mg, Day 1 (n = 3), read-out: CLr, Mean (CV) (converted)) of 46.7 mL/min and a CL renal ([3]; in vivo, 450 mg, Day 5 (n = 5), read-out: CLr, Mean (CV) (converted)) of 39.7 mL/min. For the same compound, the CL renal ([3]; in vivo, 600 mg, Day 1 (n = 1), read-out: CLr, Mean (CV) (converted)) was 69.5 mL/min, the CL renal ([3]; in vivo, 600 mg, Day 5 (n = 4), read-out: CLr, Mean (CV) (converted)) was 50.8 mL/min and the CL renal ([3]; urine, oral, all omadacycline dose groups, Day 1, read-out: Renal clearance (CLr)) was 46.7 to 70 mL/min. The CL renal ([3]; urine, oral, all omadacycline dose groups, Day 5, read-out: Renal clearance (CLr)) was 40 to 55 mL/min.
